Reference: paper PMC4690157, “Sulfur Isotope Effects of Dissimilatory Sulfite Reductase” (Frontiers in Microbiology, 2015)

What was measured:
D. vulgaris DsrAB = target: T1, D. vulgaris DsrAB (Nitratidesulfovibrio vulgaris, UniProt P45574+P45575); assay: sulfite loss over […] h by HPLC of monobromobimane derivatives; Michaelis-Menten fit; type: biochemical; settings: H2 / [NiFe] hydrogenase / methyl viologen as electron donor system; 50 mM phosphate pH 7.1; anoxic; 20 or 31 °C (fractionation conditions)
T1 construct: gene dsvA; native, purified from D. vulgaris cells (Q-Sepharose); heterodimeric DsrAB with siroheme (desulfoviridin)
T1 sequence (P45574 2-437): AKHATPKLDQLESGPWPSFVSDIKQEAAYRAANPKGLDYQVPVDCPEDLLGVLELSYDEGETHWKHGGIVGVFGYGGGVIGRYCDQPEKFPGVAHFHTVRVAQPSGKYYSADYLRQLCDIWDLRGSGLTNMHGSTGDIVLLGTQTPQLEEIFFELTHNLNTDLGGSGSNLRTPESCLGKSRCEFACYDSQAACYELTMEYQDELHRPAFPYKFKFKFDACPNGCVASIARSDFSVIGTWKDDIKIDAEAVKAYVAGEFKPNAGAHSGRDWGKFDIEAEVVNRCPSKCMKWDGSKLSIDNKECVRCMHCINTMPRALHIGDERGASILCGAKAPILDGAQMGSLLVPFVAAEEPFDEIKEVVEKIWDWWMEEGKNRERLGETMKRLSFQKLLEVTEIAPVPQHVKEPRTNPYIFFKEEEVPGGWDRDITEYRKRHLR
T1 sequence (P45575 2-381): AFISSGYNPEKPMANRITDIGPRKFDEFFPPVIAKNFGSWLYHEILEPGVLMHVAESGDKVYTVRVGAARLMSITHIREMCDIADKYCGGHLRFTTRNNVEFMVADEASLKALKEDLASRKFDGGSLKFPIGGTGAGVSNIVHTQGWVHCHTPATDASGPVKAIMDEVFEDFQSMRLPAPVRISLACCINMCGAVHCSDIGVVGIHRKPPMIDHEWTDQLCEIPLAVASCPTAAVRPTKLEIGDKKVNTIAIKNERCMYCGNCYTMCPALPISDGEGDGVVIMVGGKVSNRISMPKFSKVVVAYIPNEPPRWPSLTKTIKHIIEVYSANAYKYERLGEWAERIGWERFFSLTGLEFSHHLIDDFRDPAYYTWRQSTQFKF

A. fulgidus DsrAB = target: T2, A. fulgidus DsrAB (Archaeoglobus fulgidus, UniProt Q59109+Q59110); assay: closed-system in vitro sulfite reduction; sulfite loss and product accumulation (fuchsin assay, cyanolysis); type: biochemical; settings: 15 mM initial sulfite; 65 °C; pH 7.1; H2 / [NiFe] hydrogenase / methyl viologen as electron donor system
T2 construct: gene dsrA; native, purified from A. fulgidus cells; heterodimeric DsrAB with siroheme; free of DsrC
T2 sequence (Q59109 2-418): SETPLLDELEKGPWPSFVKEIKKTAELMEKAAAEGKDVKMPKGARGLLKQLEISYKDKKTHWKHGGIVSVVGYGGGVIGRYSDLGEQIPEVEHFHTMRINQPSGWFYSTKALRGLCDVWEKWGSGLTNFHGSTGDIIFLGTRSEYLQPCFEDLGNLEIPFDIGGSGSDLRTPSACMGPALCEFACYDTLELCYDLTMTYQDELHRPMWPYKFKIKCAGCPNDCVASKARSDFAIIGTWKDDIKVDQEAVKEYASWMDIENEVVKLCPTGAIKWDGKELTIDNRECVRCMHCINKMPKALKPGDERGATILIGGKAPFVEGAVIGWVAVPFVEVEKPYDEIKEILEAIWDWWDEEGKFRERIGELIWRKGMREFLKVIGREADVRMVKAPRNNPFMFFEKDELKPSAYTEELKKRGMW
T2 sequence (Q59110 whole entry): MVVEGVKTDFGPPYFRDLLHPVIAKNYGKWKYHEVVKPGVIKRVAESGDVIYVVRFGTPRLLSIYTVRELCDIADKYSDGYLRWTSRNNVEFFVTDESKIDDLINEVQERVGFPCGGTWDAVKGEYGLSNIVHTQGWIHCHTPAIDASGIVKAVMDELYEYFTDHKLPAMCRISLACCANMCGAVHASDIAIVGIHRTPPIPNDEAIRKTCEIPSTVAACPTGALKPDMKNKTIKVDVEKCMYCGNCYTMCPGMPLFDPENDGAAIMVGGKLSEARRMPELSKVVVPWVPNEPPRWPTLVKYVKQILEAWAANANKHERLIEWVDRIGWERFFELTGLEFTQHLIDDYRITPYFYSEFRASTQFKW

For `O=S(O)O` [sulfite], the Km (D. vulgaris DsrAB) was “solved for experimental Km and Vmax under our conditions” and the “closed-system in vitro sulfite reduction; sulfite loss and product accumulation” value (A. fulgidus DsrAB) was “showed consistent loss of sulfite and accumulation of products between replicates”.
